Tests used:
[1] = target: T1, CK2a2 (Homo sapiens, UniProt P19784); experiment: biochemical; settings: read-out: % enzyme activity, 1 μM; Run 1, Run 2
[2] = target: STK39/STLK3 (Homo sapiens, UniProt Q9UEW8); experiment: biochemical; settings: read-out: % enzyme activity, 1 μM; Run 1, Run 2
[3] = target: PEAK1 (Homo sapiens, UniProt Q9H792); experiment: biochemical; settings: read-out: % enzyme activity, 1 μM; Run 1, Run 2
[4] = target: T2, MAK (Homo sapiens, UniProt P20794); settings: 1 μM; Run 1, Run 2
T2 sequence (P20794 1-623): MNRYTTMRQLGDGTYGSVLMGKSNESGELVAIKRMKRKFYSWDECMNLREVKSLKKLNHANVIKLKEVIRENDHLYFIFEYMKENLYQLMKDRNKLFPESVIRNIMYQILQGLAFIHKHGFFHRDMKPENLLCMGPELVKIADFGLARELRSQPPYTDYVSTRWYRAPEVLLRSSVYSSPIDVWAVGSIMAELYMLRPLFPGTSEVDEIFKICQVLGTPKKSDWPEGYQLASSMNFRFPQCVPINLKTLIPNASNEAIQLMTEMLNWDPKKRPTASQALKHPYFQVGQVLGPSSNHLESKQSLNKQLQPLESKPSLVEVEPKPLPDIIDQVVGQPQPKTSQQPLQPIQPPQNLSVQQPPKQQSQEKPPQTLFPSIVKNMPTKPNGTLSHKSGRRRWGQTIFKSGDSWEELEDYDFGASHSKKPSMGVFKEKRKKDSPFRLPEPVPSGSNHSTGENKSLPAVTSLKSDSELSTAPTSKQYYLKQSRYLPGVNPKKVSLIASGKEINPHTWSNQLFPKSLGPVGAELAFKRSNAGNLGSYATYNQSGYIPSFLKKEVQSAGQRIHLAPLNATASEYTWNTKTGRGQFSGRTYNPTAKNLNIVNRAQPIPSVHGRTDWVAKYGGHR

[5] = target: T1, CK2a2; settings: 1 μM; Run 1, Run 2
[6] = target: T3, PKG1b (Homo sapiens, UniProt Q13976); experiment: biochemical; settings: read-out: % enzyme activity, 1 μM; Run 1, Run 2
T3 sequence (Q13976 1-686 isoform Q13976-2): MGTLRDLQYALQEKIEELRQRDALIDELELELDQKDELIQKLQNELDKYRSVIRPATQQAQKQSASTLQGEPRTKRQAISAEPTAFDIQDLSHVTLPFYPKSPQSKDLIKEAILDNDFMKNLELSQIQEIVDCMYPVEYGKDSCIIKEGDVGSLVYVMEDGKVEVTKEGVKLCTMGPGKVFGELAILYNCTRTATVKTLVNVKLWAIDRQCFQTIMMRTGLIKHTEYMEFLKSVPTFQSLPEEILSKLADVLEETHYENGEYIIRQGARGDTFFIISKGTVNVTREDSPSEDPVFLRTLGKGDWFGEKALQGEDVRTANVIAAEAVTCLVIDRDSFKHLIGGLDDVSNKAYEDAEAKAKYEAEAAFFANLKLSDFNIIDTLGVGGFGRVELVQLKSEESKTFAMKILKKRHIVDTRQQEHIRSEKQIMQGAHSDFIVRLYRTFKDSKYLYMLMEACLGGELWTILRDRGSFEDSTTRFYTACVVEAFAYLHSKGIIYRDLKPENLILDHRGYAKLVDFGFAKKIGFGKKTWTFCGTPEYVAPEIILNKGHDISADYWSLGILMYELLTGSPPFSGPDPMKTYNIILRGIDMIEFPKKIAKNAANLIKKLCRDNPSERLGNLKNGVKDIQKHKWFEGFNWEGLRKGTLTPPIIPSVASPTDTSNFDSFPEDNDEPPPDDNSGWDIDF

[7] = target: c-Kit (Homo sapiens, UniProt P10721); settings: 1 μM; Run 1, Run 2
c-Kit, sequence (P10721 26-976): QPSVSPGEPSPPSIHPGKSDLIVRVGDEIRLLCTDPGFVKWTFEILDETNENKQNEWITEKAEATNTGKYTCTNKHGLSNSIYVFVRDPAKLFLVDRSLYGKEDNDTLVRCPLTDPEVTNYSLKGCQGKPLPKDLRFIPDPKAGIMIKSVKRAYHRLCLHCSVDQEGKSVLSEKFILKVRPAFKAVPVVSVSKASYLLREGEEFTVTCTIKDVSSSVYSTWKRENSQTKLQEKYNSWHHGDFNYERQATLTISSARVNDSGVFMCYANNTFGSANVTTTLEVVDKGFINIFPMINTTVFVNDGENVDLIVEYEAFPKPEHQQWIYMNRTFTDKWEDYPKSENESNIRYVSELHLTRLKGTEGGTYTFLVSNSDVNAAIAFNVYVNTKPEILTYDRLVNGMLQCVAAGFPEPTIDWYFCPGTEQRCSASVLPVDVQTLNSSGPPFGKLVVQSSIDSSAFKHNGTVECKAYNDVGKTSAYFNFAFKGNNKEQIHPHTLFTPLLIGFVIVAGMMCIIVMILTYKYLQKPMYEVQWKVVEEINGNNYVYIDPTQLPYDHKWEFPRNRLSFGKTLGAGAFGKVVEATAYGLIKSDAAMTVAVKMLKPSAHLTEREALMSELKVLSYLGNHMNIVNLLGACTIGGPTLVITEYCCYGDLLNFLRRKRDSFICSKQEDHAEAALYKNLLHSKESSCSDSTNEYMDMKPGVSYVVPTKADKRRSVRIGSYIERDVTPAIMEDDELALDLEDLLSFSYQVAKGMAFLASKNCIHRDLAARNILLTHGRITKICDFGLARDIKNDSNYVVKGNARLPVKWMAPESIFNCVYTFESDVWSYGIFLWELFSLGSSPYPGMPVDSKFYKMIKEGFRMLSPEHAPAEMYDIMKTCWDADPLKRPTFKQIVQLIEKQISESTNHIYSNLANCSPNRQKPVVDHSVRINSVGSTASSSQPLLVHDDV

[8] = target: T4, GRK7 (Homo sapiens, UniProt Q8WTQ7); settings: 1 μM; Run 1, Run 2
T4 sequence (Q8WTQ7 1-553): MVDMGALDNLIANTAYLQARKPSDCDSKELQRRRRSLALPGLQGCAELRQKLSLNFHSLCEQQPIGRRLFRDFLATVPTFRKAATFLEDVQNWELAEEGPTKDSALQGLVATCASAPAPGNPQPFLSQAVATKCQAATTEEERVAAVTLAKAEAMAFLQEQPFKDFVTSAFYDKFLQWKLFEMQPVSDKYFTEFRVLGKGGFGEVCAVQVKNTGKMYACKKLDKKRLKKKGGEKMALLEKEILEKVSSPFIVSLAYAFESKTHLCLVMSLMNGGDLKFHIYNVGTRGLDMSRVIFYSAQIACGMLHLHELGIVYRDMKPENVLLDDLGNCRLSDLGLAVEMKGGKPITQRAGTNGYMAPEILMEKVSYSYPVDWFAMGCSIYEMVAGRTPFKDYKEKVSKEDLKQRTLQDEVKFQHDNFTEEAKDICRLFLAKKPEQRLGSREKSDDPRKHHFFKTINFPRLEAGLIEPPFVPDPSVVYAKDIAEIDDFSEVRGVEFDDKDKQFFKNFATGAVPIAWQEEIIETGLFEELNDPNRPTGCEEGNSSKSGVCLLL

T1 sequence (P19784 whole entry): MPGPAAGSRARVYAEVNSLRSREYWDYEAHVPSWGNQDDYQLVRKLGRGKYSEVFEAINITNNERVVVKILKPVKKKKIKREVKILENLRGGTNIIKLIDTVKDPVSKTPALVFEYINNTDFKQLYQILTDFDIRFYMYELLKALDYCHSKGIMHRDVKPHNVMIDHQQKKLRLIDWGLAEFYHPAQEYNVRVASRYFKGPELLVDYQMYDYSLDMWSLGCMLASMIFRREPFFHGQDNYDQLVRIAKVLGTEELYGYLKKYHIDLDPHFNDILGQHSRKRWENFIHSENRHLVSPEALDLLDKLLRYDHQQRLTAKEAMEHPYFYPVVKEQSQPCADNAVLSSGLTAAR
PEAK1, sequence (Q9H792 whole entry): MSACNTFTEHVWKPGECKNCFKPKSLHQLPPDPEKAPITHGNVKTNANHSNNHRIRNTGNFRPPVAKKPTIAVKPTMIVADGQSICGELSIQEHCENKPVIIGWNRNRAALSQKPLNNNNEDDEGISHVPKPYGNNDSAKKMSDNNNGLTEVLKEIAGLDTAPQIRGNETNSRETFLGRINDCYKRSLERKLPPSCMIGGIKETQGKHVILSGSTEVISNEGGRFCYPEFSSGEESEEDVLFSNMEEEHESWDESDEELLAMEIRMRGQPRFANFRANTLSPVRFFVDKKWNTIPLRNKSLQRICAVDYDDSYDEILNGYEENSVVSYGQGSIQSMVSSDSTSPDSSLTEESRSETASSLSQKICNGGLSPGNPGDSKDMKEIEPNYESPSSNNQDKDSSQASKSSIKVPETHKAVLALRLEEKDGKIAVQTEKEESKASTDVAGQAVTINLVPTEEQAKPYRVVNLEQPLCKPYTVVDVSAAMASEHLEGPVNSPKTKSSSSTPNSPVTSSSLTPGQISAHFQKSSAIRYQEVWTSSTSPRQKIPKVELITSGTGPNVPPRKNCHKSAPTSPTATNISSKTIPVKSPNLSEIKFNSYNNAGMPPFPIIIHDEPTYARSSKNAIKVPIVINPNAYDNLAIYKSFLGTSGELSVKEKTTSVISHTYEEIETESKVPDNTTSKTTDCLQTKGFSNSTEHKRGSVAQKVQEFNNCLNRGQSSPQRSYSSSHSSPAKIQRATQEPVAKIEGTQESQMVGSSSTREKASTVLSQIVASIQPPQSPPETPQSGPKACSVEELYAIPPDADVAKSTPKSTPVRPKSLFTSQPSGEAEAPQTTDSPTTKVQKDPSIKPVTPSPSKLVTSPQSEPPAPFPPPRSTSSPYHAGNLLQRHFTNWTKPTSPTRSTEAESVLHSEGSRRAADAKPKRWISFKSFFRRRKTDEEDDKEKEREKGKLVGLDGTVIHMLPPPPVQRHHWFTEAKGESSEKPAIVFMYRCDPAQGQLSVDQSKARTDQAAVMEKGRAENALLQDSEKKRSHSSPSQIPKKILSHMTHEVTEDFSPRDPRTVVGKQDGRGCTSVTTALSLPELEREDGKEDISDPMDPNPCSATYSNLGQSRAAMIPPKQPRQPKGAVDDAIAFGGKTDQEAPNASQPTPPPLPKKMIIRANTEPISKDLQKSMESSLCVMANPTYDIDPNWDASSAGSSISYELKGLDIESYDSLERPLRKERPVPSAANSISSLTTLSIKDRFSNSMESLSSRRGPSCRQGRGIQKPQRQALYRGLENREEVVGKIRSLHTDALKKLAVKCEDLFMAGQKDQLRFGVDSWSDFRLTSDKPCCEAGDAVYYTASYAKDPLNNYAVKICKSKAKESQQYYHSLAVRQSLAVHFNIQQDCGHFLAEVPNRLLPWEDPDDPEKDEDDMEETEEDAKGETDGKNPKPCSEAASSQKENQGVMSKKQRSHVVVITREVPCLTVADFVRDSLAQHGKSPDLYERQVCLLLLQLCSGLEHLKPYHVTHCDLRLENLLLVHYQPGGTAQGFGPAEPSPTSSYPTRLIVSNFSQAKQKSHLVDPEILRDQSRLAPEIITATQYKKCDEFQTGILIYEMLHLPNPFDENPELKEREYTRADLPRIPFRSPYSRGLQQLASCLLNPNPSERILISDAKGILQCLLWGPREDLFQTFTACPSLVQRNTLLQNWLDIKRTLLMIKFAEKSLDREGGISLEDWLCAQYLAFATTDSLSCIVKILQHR

## COc1cc(-c2cncc(-c3ccc(N4CCN(C)CC4)cc3)c2C)cc(F)c1C(N)=O [Compound 26a, 2-Fluoro-6-methoxy-4-(4-methyl-5-(4-(4-methylpiperazin-1-yl)phenyl)pyridin-3-yl)benzamide]
[1]
  remaining activity at 1 µM: 95.3%
[2]
  remaining activity at 1 µM: 89.1%
[3]
  remaining activity at 1 µM: 99.1%
[4]
  % enzyme activity: 98.28%
[5]
  % enzyme activity: 92.27%
[6]
  remaining activity at 1 µM: 102%
[7]
  % enzyme activity: 74.03%
[8]
  % enzyme activity: 93.81%

## COc1cc(-c2cncc(-c3ccc(N4C[C@@H](C)N(C)[C@@H](C)C4)cc3)c2C)cc(F)c1C(N)=O [Compound 26c, 2-Fluoro-6-methoxy-4-(4-methyl-5-(4-((3R,5S)-3,4,5-trimethylpiperazin-1-yl)phenyl)pyridin-3-yl)benzamide]
[1]
  remaining activity at 1 µM: 101%
[2]
  remaining activity at 1 µM: 95.7%
[3]
  remaining activity at 1 µM: 96.6%
[4]
  % enzyme activity: 100.81%
[5]
  % enzyme activity: 98.98%
[6]
  remaining activity at 1 µM: 98.8%
[7]
  % enzyme activity: 74.89%
[8]
  % enzyme activity: 91.35%
